The target of one experiment is CLK2 kinase (Homo sapiens, UniProt P49760). Description: CLK2 kinase activity assay (Z-lyte FRET).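 Note: FRET read-out as coumarin to fluorescein emission ratio, unphosphorylated peptide as 0% and phosphorylated peptide as 100% controls, duplicate reactions, non-linear regression fit of dose-response curves.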 The format is biochemical. The settings on record: Z-lyte Ser/Thr 6 peptide, 60 μM ATP, 1 h at room temperature.
The target in a further experiment is CLK3 kinase (Homo sapiens, UniProt P49761). Nature of the experiment: CLK3 kinase activity assay (Z-lyte FRET).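 Note: kinase activity read as coumarin/fluorescein emission ratio by FRET, unphosphorylated peptide as 0% and phosphorylated peptide as 100% control, values from non-linear regression of dose-response curves.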 The format is biochemical. The settings on record: Z-lyte Ser/Thr 18 peptide, 156 μM ATP, 1 h at room temperature.
The subject of experiment [1] is primary human mesenchymal stem cells (hMSCs). Description: Chondrogenesis screening using primary human mesenchymal stem cells. The format is cell-based. The settings on record: Homo sapiens, Mesenchymal stem cells, hMSC chondrogenesis; for Emax: maximum activity relative to TGF-β3 (10 ng/mL) positive control, read-out: Max. Activity as % TGF-β3 activity; for EC50: concentration required to induce 50% levels of chondrogenesis with TGF-β3 as positive control, read-out: Conc (nM) of 50% TGF-β3 activity. The method, boiled down: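 Derived values are EC50 for 50% chondrogenesis, maximal activity and the dose giving it. These come from nodule area in passage 3–6 primary hMSCs, expressed as fold change over the mean of 3 same-plate DMSO wells, 2–3 replicates per concentration. TGF-β3 served as positive control.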

Experiment [2] concerns Wnt pathway activity (SW480 colon carcinoma cells stably expressing the Sp5-Luc reporter). Nature of the experiment: Wnt pathway activity screening assay (Sp5-Luc reporter gene assay). The settings on record: Homo sapiens, SW480, Table 4; SW480 cells stably expressing Sp5-Luc reporter, 10-point dose-response from 10 μM, 36 to 48 hours.

The record followed here is patent US20230000842A1, “METHODS OF TREATING CARTILAGE DISORDERS THROUGH INHIBITION OF CLK AND DYRK” (SAMUMED, LLC, priority 2019, published 2023).

Molecules are shown by their SMILES.

Chain of CLK3 kinase (P49761 whole entry): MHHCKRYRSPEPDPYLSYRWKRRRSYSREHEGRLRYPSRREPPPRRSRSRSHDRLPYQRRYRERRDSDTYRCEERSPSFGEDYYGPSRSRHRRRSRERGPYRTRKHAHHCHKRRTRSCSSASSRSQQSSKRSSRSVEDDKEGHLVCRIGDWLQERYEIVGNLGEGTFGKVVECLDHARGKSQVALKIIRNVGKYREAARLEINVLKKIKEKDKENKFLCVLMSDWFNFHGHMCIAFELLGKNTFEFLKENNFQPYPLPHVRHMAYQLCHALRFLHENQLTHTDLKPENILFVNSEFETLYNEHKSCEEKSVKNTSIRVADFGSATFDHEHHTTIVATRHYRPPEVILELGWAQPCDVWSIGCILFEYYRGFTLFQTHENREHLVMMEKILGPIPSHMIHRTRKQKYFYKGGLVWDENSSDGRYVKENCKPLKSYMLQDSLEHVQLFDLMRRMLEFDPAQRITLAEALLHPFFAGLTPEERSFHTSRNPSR
Chain of CLK2 kinase (P49760 whole entry): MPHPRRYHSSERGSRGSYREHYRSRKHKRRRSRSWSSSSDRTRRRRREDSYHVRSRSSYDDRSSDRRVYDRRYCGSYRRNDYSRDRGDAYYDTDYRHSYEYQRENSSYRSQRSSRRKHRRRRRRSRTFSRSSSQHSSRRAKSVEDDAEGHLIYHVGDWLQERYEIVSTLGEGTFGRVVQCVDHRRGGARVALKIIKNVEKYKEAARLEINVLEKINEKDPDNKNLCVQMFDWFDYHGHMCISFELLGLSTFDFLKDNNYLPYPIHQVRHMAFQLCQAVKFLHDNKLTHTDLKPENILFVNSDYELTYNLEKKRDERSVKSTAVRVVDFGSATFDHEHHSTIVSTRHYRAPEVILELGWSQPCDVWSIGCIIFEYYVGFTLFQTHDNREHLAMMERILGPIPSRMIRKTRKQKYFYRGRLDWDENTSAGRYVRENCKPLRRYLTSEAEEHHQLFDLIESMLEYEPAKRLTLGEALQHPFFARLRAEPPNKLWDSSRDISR

As to `O=C(Nc1cncc(-c2ccc3[nH]nc(-c4nc5ccncc5[nH]4)c3c2)c1)C1CC1` [compound 204], the EC50 is 27 nM at CLK2 kinase, 206 nM on CLK3 kinase and 8 nM in experiment [2]. Also, in experiment [1], the Emax was 93.8%.

For the compound `CN(C)Cc1cncc(-c2ccc3[nH]nc(-c4cc5c(-c6cccnc6)cccc5[nH]4)c3n2)c1` [compound 368], the figures for the EC50 (at CLK2 kinase; on CLK3 kinase; in experiment [2]) were 4 nM, 102 nM and 415 nM, respectively. Moreover, the Emax in experiment [1] is 35.9%.

Consider `O=C(Nc1cncc(-c2cnc3[nH]nc(-c4cc5cnccc5[nH]4)c3c2)c1)c1ccccc1` [compound 435], for which the EC50 on CLK2 kinase was 2 nM; on CLK3 kinase, 46 nM; in experiment [1], 30 nM; in experiment [2], over 10000 nM. In addition, in experiment [1], the Emax was determined as 69.9%.

As for `c1ccc(CNCc2cncc(-c3ccc4[nH]nc(-c5cc6c(-c7cccs7)cncc6[nH]5)c4c3)c2)cc1` [compound 508], the EC50 on CLK2 kinase was 7 nM; at CLK3 kinase, 68 nM; in experiment [2], 578 nM. Also, the Emax in experiment [1] was 57.4%.

For `Fc1cccc(-c2nccc3[nH]c(-c4n[nH]c5ccc(-c6cccnc6)nc45)cc23)c1` [compound 301], the EC50 at CLK2 kinase was 8 nM; at CLK3 kinase, 105 nM; in experiment [2], 1350 nM. For the same compound, the Emax in experiment [1] came out at 44.8%.

Take `FC1(F)CCN(Cc2cncc(-c3cc4c(-c5cc6cccnc6[nH]5)n[nH]c4cn3)c2)C1` [compound 445]: the EC50 at CLK2 kinase came out at 5 nM; on CLK3 kinase it was 203 nM; in experiment [2] it was 1350 nM. The Emax in experiment [1] amounted to 45.3%.

On to `c1cncc(-c2cc3c(-c4cc5cnccc5[nH]4)n[nH]c3cn2)c1` [compound 412], for which the EC50 at CLK2 kinase worked out at 2 nM; on CLK3 kinase, 88 nM; in experiment [1], 30 nM; in experiment [2], 133 nM. Further, in experiment [1], the Emax worked out at 62%.

`c1cncc(-c2cnc3[nH]nc(-c4nc5c(-c6cccnc6)cncc5[nH]4)c3c2)c1` [compound 181]: the EC50 at CLK2 kinase was 15 nM; on CLK3 kinase it was 17 nM; in experiment [2], over 10000 nM. For the same compound, in experiment [1], the Emax was 62.9%.

For `O=C(Nc1cncc(-c2ccc3[nH]nc(-c4nc5c(-c6ccc(Cl)s6)nccc5[nH]4)c3n2)c1)C1CCC1` [compound 267], the EC50 was determined as 8 nM on CLK2 kinase, 9840 nM at CLK3 kinase, 30 nM in experiment [1] and 823 nM in experiment [2]. Also, the Emax in experiment [1] is 60.2%.

Regarding `CS(=O)(=O)NCc1cc(F)cc(-c2cncc3[nH]c(-c4n[nH]c5cnc(-c6cncc(NC(=O)C7CCC7)c6)cc45)cc23)c1` [compound 529], the EC50 at CLK2 kinase is 8 nM; on CLK3 kinase, 188 nM; in experiment [2] it was over 10000 nM. The Emax in experiment [1] is 15.5%.

`CC(C)C(=O)Nc1cncc(-c2ccc3[nH]nc(-c4cc5c(N6CCN(C)CC6)nccc5[nH]4)c3c2)c1` [compound 475]: the EC50 at CLK2 kinase stood at 11 nM; at CLK3 kinase it was 569 nM; in experiment [2], 7690 nM. Further, in experiment [1], the Emax worked out at 21%.

With `c1cncc(-c2ccc3[nH]nc(-c4nc5c(-c6ccoc6)cncc5[nH]4)c3c2)c1` [compound 229], the EC50 at CLK2 kinase is 2 nM; on CLK3 kinase it was 44 nM; in experiment [1], 100 nM; in experiment [2], 45.4 nM. The Emax in experiment [1] was determined as 149%.

In the case of `c1cncc(-c2ccc3[nH]nc(-c4nc5c(-c6cccnc6)ccnc5[nH]4)c3n2)c1` [compound 185], the EC50 at CLK2 kinase turned out to be 1 nM; on CLK3 kinase it was 308 nM; in experiment [1], 300 nM; in experiment [2], 1510 nM. In experiment [1], the Emax came out at 94.6%.

Turning to `CCCCC(=O)Nc1cncc(-c2cnc3[nH]nc(-c4cc5cnccc5[nH]4)c3c2)c1` [compound 421], the EC50 came out at 3 nM at CLK2 kinase, 83 nM at CLK3 kinase and 1470 nM in experiment [2]. In addition, the Emax in experiment [1] was 30.8%.

For the compound `CN(C)c1cncc(-c2ccc3[nH]nc(-c4nc5c(-c6cccc(F)c6)cncc5[nH]4)c3n2)c1` [compound 132], the EC50 stood at 1 nM at CLK2 kinase, 12 nM at CLK3 kinase, 10 nM in experiment [1] and 638 nM in experiment [2]. The Emax in experiment [1] turned out to be 154%.

Regarding `O=C(Nc1cncc(-c2cnc3[nH]nc(-c4cc5cccnc5[nH]4)c3c2)c1)C1CCCCC1` [compound 432], the EC50 on CLK2 kinase was found to be 17 nM; at CLK3 kinase it was 2970 nM; in experiment [2], 1260 nM. For the same compound, the Emax in experiment [1] was found to be 28.5%.

For `CCCCC(=O)Nc1cncc(-c2ccc3[nH]nc(-c4cc5c(N6CCCCC6)nccc5[nH]4)c3n2)c1` [compound 459], the EC50 at CLK2 kinase was 13 nM; on CLK3 kinase, 269 nM; in experiment [1] it was 30 nM; in experiment [2] it was 4050 nM. The Emax in experiment [1] came to 54.5%.

With `O=C(Nc1cncc(-c2cnc3[nH]nc(-c4nc5c(-c6ccoc6)cncc5[nH]4)c3c2)c1)c1ccccc1` [compound 235], the EC50 was determined as 8 nM at CLK2 kinase, 2630 nM at CLK3 kinase, 100 nM in experiment [1] and 51 nM in experiment [2]. Also, the Emax in experiment [1] worked out at 110%.

On to `CCCCC(=O)Nc1cncc(-c2ccc3[nH]nc(-c4nc5c(-c6ccoc6)cncc5[nH]4)c3n2)c1` [compound 231], for which the EC50 was 3 nM at CLK2 kinase, 361 nM at CLK3 kinase, 10 nM in experiment [1] and over 10000 nM in experiment [2]. Further, in experiment [1], the Emax worked out at 73.6%.

For the compound `CN(C)Cc1cncc(-c2cc3c(-c4cc5c(-c6ccncc6)ccnc5[nH]4)n[nH]c3cn2)c1` [compound 400], the EC50 at CLK2 kinase is 12 nM; at CLK3 kinase it was 180 nM; in experiment [2], over 10000 nM. Also, in experiment [1], the Emax was 33.4%.

Take `Fc1ccc(-c2cncc3[nH]c(-c4n[nH]c5ncc(-c6cncnc6)cc45)cc23)cc1` [compound 319]: the EC50 on CLK2 kinase was 6 nM; at CLK3 kinase, 817 nM; in experiment [2] it was 594 nM. In addition, the Emax in experiment [1] came to 23.8%.

As for `CCCCC(=O)Nc1cncc(-c2ccc3[nH]nc(-c4cc5c(-c6ccoc6)cncc5[nH]4)c3c2)c1` [compound 499], the EC50 on CLK2 kinase was determined as 3 nM; at CLK3 kinase it was 42 nM; in experiment [2], 915 nM. Besides, in experiment [1], the Emax worked out at 122%.

For `c1cnc2[nH]c(-c3n[nH]c4ccc(-c5cncc(OCCN6CCCC6)c5)cc34)cc2c1` [compound 453], the values for the EC50 (on CLK2 kinase; at CLK3 kinase; in experiment [2]) were 2 nM, 246 nM and 3300 nM, respectively. Also, the Emax in experiment [1] came to 42.7%.

With `CC(C)(C)C(=O)Nc1cncc(-c2ccc3[nH]nc(-c4nc5c(-c6ccc(F)cc6)cncc5[nH]4)c3c2)c1` [compound 161], the EC50 was 17 nM at CLK2 kinase, 105 nM at CLK3 kinase, 100 nM in experiment [1] and 4 nM in experiment [2]. In addition, the Emax in experiment [1] was 128%.

Turning to `Nc1cncc(-c2cnc3[nH]nc(-c4cc5c(-c6ccncc6)nccc5[nH]4)c3c2)c1` [compound 378], the EC50 is 2 nM on CLK2 kinase, 50 nM on CLK3 kinase, 30 nM in experiment [1] and over 10000 nM in experiment [2]. Also, the Emax in experiment [1] amounted to 53.5%.

On to `Cc1cn(-c2nccc3[nH]c(-c4n[nH]c5ccc(-c6cncc(NC(=O)C(C)(C)C)c6)nc45)nc23)cn1` [compound 221], for which the EC50 was 3 nM on CLK2 kinase, 188 nM at CLK3 kinase, 30 nM in experiment [1] and over 10000 nM in experiment [2]. The Emax in experiment [1] came out at 69.7%.

`O=C(Nc1cncc(-c2cc3c(-c4cc5cnccc5[nH]4)n[nH]c3cn2)c1)C1CC1` [compound 426]: the EC50 at CLK2 kinase stood at 5 nM; on CLK3 kinase, 88 nM; in experiment [1], 30 nM; in experiment [2] it was 1540 nM. Besides, the Emax in experiment [1] is 58.5%.

Turning to `CCCC(=O)Nc1cncc(-c2ccc3[nH]nc(-c4cc5c(-c6ccncc6)cncc5[nH]4)c3c2)c1` [compound 383], the EC50 is 3 nM at CLK2 kinase, 46 nM at CLK3 kinase and over 10000 nM in experiment [2]. Besides, the Emax in experiment [1] came to 124%.

For `CC(C)Nc1cncc(-c2ccc3[nH]nc(-c4nc5c(-c6cccnc6)ccnc5[nH]4)c3n2)c1` [compound 195], the EC50 at CLK2 kinase amounted to 1 nM; at CLK3 kinase, 280 nM; in experiment [1] it was 10 nM; in experiment [2], 1750 nM. Besides, in experiment [1], the Emax worked out at 114%.

For the compound `FC1(F)CCN(Cc2cncc(-c3cnc4[nH]nc(-c5cc6c(-c7ccncc7)cncc6[nH]5)c4c3)c2)C1` [compound 402], the values for the EC50 (on CLK2 kinase; at CLK3 kinase; in experiment [2]) were 5 nM, 110 nM and 1510 nM, respectively. The Emax in experiment [1] was found to be 36.5%.

As for `O=C(Nc1cncc(-c2ccc3[nH]nc(-c4cc5c(-c6ccncc6)nccc5[nH]4)c3c2)c1)C1CCCC1` [compound 395], the EC50 on CLK2 kinase is 5 nM; at CLK3 kinase, 30 nM; in experiment [2], over 10000 nM. In addition, the Emax in experiment [1] stood at 114%.

Consider `CCNCc1cncc(-c2ccc3[nH]nc(-c4nc5c(-c6cc(F)cc(NCCN(C)C)c6)nccc5[nH]4)c3n2)c1` [compound 285], for which the EC50 is 1 nM at CLK2 kinase, 90 nM at CLK3 kinase and over 10000 nM in experiment [2]. The Emax in experiment [1] amounted to 35.6%.
